Measurements: US20130303533A1, “AZOLOPYRIDINE AND AZOLOPYRIMIDINE COMPOUNDS AND METHODS OF USE THEREOF” (AMBIT BIOSCIENCES CORPORATION, priority 2010, published 2013)

Tests used:
[1] = system: GM-CSFR/JAK2/STAT5 pathway; test: CSTF-1 cell-based reporter assay; conditions: Homo sapiens; csTF-1 cells, GM-CSF at 2 ng/mL, 4 hours, beta-lactamase reporter; read-out: Cell Assay: CS TF-1 reporter assay IC50
Protocol: CSTF-1 Cell-Based Reporter Assay
CSTF-1 cells are derived from the human erythroleukemia cell line that is growth dependent on GM-CSF and has an intact GM-CSFR/JAK2/STAT5 pathway. The cell line contains stably integrated beta-lactamase reporter gene under the control of the […] (irf 1) response element recognized by the activated transcription factor STAT5. csTF-1 cells (Invitrogen K1219) were washed with assay media (97% OPTIMEM/0.5% dialyzed FBS/0.1 mM NEAA/1 mM Na pyr/P/S) and seeded in the same media at 5×10^5 cell/mL in T150 flask. After 16 hour incubation, cells were seeded at 2×10^5 cell/well in 50 μl volume, into Costar, clear bottom, 96-well assay plates. Serial dilutions of compounds were added to the plates with final DMSO concentration at 0.5% and GM-CSF at 2 ng/mL and the plates were then incubated at 30° C. and 5% CO2 for 4 hours. The plates were brought to room temperature before adding Substrate Mixture according to manufacturer's protocol (Invitrogen, Catalog #K1085). The assay plates containing the substrate mixture were incubated in the dark at room temperature for 2 hours. Blue and green fluorescence was measured with excitation at 409 nm and emission at 460 nm (for blue) and excitation at 409 nm and emission at 530 nm (for green) using Spectra Max Gemini EM.

JAK2 = target: T1, JAK2 (Homo sapiens, UniProt O60674); test: Competition binding assay to determine binding constants (Kd), JAK2
T1 construct: made in house; host or cells: T7 phage display or HEK-293 cells (alternatives)
Text: (§1) Competition Binding Assay to Determine Binding Constants (Kd) of the Compounds Against JAK Kinases
(§2) Competition binding assays used herein were developed, validated and performed as described in Fabian et al., Nature Biotechnology 2005, 23, 329-336. Kinases were produced as fusions to T7 phage (See, Fabian et al. or WO04/015142) or alternatively, the kinases were expressed in HEK-293 cells and subsequently tagged with DNA for PCR detection (See, WO08/005,310). For the binding assays, streptavidin-coated magnetic beads were treated with biotinylated affinity ligands for 30 min at rt to generate affinity resins. The liganded beads were blocked with excess biotin and washed with blocking buffer (SeaBlock (Pierce), 1% BSA, 0.05% Tween 20, 1 mM DTT) to remove unbound ligand and to reduce non-specific binding. Binding reactions were assembled by combining kinase, liganded affinity beads, and test compounds in 1× binding buffer (20% SeaBlock, 0.17×PBS, 0.05% Tween 20, 6 mM DTT). Test compounds were prepared as 100× stocks in DMSO and rapidly diluted into the aqueous environment. DMSO was added to control assays lacking a test compound. Primary screen interactions were performed in polypropylene 384-well plates in a final volume of 34 μL, while Kd determinations were performed in polystyrene 96-well plates in a final volume of 135 μL. The assay plates were incubated at room temperature with shaking for 1 hour, long enough for binding reactions to reach equilibrium, and the affinity beads were washed extensively with wash buffer (1×PBS, 0.05% Tween 20) to remove unbound protein. The beads were then resuspended in elution buffer (1×PBS, 0.05% Tween 20, 2 μM non-biotinylated affinity ligand) and incubated at room temperature with shaking for 30 min. The kinase concentration in the eluates was measured by quantitative PCR. Each kinase was tested individually against each compound. Kds were determined using eleven serial threefold dilutions. A selectivity score, which is a quantitative measure of selectivity of a compound against a panel of enzymes, may be calculated for a compound by dividing the number of enzymes for which a compound meets a set criteria, (for example, a binding constant of 100 nM or less), by the total number of enzymes tested.

JAK3 = target: T2, JAK3 (Homo sapiens, UniProt P52333); test: Competition binding assay to determine binding constants (Kd), JAK3
T2 construct: made in house; host or cells: T7 phage display or HEK-293 cells (alternatives)
T2 sequence (P52333 1-1124): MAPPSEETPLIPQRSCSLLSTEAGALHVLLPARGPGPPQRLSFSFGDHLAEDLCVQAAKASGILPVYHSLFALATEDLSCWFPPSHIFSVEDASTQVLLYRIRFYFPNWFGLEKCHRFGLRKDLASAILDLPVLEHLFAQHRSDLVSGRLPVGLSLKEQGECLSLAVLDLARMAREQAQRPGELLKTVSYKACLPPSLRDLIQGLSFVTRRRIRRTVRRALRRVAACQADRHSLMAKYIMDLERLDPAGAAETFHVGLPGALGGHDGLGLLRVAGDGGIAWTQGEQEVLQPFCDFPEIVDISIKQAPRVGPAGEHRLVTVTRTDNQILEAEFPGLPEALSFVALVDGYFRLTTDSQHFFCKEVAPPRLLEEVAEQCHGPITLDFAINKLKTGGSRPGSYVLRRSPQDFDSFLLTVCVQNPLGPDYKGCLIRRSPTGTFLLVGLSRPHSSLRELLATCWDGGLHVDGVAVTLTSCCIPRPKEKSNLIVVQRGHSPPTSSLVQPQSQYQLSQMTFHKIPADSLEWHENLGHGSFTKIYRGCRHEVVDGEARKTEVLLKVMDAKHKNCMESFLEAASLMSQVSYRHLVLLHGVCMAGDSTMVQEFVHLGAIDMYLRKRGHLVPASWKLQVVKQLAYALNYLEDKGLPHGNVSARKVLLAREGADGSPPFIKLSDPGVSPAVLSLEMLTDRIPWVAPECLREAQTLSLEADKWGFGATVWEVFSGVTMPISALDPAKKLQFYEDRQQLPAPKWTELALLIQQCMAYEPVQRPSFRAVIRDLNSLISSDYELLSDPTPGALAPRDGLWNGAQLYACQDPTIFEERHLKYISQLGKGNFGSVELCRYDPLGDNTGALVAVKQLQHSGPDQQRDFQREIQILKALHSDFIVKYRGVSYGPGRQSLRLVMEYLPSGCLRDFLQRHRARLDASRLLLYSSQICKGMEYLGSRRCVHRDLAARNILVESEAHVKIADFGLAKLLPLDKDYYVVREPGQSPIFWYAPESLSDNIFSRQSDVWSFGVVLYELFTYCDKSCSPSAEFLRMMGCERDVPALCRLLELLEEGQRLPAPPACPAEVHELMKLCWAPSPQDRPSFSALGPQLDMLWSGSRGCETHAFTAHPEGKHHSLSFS
Text: as §1, §2

TYK2 = target: T3, TYK2 (Homo sapiens, UniProt P29597); test: Competition binding assay to determine binding constants (Kd), TYK2
T3 construct: made in house; host or cells: T7 phage display or HEK-293 cells (alternatives)
Text: as §1, §2

T3 sequence (P29597 whole entry): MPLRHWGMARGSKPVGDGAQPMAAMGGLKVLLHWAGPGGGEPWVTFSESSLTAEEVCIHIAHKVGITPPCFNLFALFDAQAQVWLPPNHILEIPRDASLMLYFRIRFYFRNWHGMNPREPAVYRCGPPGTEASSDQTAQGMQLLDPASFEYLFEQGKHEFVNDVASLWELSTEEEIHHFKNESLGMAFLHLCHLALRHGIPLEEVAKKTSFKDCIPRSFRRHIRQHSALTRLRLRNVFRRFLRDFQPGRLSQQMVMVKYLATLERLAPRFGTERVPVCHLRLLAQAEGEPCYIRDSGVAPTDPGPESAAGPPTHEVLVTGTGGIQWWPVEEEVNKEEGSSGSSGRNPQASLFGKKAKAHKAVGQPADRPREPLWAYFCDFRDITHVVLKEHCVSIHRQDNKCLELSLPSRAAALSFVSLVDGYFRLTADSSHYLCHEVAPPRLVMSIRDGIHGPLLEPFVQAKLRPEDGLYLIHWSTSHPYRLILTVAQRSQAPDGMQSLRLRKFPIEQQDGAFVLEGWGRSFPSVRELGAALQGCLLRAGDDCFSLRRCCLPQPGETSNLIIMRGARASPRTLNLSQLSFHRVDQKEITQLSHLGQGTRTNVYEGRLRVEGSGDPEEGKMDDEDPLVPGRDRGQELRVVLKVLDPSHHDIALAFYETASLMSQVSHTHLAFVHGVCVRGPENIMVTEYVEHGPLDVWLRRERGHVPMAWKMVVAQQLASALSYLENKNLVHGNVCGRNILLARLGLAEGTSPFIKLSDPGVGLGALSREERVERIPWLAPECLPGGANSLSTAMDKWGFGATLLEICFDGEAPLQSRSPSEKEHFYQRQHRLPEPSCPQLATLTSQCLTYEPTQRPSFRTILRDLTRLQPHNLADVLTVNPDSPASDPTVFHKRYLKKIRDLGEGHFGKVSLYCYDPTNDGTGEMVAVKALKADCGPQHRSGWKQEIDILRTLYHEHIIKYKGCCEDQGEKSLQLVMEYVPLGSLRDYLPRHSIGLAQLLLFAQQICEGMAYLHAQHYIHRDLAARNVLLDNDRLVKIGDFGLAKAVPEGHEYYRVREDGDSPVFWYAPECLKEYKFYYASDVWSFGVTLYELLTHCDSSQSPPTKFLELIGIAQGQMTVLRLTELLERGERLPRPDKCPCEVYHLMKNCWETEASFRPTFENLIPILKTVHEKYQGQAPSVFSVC
T1 sequence (O60674 whole entry): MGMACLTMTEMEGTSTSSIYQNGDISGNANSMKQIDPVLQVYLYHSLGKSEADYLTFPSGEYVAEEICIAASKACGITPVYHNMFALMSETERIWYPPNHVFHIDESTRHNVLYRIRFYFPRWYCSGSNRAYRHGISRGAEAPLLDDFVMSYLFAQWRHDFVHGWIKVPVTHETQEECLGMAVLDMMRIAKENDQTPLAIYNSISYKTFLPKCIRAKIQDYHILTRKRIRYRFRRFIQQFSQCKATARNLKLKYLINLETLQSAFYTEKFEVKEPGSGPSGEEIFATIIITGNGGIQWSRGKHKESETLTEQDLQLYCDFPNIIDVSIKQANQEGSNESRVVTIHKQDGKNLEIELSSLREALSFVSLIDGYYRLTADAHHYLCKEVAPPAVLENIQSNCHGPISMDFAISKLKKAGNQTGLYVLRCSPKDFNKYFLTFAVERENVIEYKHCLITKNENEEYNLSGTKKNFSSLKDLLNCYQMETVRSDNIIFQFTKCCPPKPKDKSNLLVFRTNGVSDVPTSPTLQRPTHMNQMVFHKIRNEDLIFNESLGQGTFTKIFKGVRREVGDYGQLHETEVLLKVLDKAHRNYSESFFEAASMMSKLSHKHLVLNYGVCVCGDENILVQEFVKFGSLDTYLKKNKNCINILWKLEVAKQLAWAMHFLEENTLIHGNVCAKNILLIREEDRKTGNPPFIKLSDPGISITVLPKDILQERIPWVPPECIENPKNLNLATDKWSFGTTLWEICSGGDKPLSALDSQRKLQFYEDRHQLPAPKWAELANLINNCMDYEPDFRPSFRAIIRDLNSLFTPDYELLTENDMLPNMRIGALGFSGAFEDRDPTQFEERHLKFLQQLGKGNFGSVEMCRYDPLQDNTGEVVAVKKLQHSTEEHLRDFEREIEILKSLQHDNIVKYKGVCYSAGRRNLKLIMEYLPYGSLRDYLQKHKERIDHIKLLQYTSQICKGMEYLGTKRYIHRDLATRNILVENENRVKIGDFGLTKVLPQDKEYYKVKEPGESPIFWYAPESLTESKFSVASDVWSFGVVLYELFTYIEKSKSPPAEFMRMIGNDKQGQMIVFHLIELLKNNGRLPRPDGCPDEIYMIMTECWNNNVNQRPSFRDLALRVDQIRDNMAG

| IC50 [1] [nM] | Kd (JAK2) [nM] | Kd (JAK3) [nM] | Kd (TYK2) [nM] | SMILES |
| --- | --- | --- | --- | --- |
| 100 to 500 | ≤ 1 | 10 to 100 | ≤ 10 | Cc1cc(Nc2nc(S(=O)(=O)c3ccc(F)cc3)nc3c2cnn3CCN2CCOCC2)n[nH]1 [Example 29, 6-(4-fluorophenylsulfonyl)-N-(5-methyl-1H-pyrazol-3-yl)-1-(2-morpholinoethyl)-1H-pyrazolo[3,4-d]pyrimidin-4-amine] |
| 100 to 500 | 1 to 10 | 10 to 100 | ≤ 10 | Cc1cc(Nc2nc(C(F)(F)c3ccc(F)cc3)nc3ncsc23)n[nH]1 [Example 41, 5-(difluoro(4-fluorophenyl)methyl)-N-(5-methyl-1H-pyrazol-3-yl)thiazolo[4,5-d]pyrimidin-7-amine] |
| 100 to 500 | ≤ 1 | 10 to 100 | ≤ 10 | Cc1cc(Nc2nc(C(F)(F)c3ccc(F)cc3)nc3c2cnn3C)n[nH]1 [Example 26, 6-(difluoro(4-fluorophenyl)methyl)-1-methyl-N-(5-methyl-1H-pyrazol-3-yl)-1H-pyrazolo[3,4-d]pyrimidin-4-amine] |
| ≤ 100 | ≤ 1 | ≤ 10 | ≤ 10 | O=S(=O)(c1ccc(F)cc1)c1nc(Nc2cc[nH]n2)c2cc[nH]c2n1 [Example 3, 2-(4-fluorophenylsulfonyl)-N-(1H-pyrazol-3-yl)-7H-pyrrolo[2,3-d]pyrimidin-4-amine] |
| ≤ 100 | ≤ 1 | ≤ 10 | ≤ 10 | CCn1ccc2c(Nc3cc(OC)[nH]n3)nc(S(=O)(=O)c3ccc(F)cc3)nc21 [Example 14, 7-ethyl-2-(4-fluorophenylsulfonyl)-N-(5-methoxy-1H-pyrazol-3-yl)-7H-pyrrolo[2,3-d]pyrimidin-4-amine] |
| ≤ 100 | ≤ 1 | ≤ 10 | ≤ 10 | CCn1ccc2c(Nc3cc(C)[nH]n3)nc(S(=O)(=O)c3ccc(F)cc3)nc21 [Example 7, 7-ethyl-2-(4-fluorophenylsulfonyl)-N-(5-methyl-1H-pyrazol-3-yl)-7H-pyrrolo[2,3-d]pyrimidin-4-amine] |
| 100 to 500 | ≤ 1 | 10 to 100 | ≤ 10 | Cn1cc2c(Nc3cc[nH]n3)nc(C(F)(F)c3ccc(F)cc3)nc2n1 [Example 21, 6-(difluoro(4-fluorophenyl)methyl)-2-methyl-N-(1H-pyrazol-3-yl)-2H-pyrazolo[3,4-d]pyrimidin-4-amine] |
| 100 to 500 | ≤ 1 | ≤ 10 | ≤ 10 | Cc1cc(Nc2nc(S(=O)(=O)c3ccc(F)cc3)nc3c2ccn3CCS(C)(=O)=O)n[nH]1 [Example 17, 2-(4-fluorophenylsulfonyl)-N-(5-methyl-1H-pyrazol-3-yl)-7-(2-(methylsulfonyl)ethyl)-7H-pyrrolo[2,3-d]pyrimidin-4-amine] |
| ≤ 100 | ≤ 1 | ≤ 10 | ≤ 10 | Cc1cc(Nc2nc(C(F)(F)c3ccc(F)cn3)nc3nn(C4CCCC4)cc23)n[nH]1 [Example 44, 2-cyclopentyl-6-(difluoro(5-fluoropyridin-2-yl)methyl)-N-(5-methyl-1H-pyrazol-3-yl)-2H-pyrazolo[3,4-d]pyrimidin-4-amine] |
| ≤ 100 | ≤ 1 | ≤ 10 | ≤ 10 | Cc1cc(Nc2nc(S(=O)(=O)c3ccc(F)cc3)nc3c2ccn3C)n[nH]1 [Example 9, 2-(4-fluorophenylsulfonyl)-7-methyl-N-(5-methyl-1H-pyrazol-3-yl)-7H-pyrrolo[2,3-d]pyrimidin-4-amine] |
| 100 to 500 | ≤ 1 | ≤ 10 | ≤ 10 | CS(=O)(=O)CCn1ccc2c(Nc3cc[nH]n3)nc(S(=O)(=O)c3ccc(F)cc3)nc21 [Example 18, 2-(4-fluorophenylsulfonyl)-7-(2-(methylsulfonyl)ethyl)-N-(1H-pyrazol-3-yl)-7H-pyrrolo[2,3-d]pyrimidin-4-amine] |
| ≤ 100 | ≤ 1 | ≤ 10 | ≤ 10 | Cc1cc(Nc2nc(S(=O)(=O)c3ccc(F)cc3)nc3c2ccn3CCO)n[nH]1 [Example 13, 2-(2-(4-fluorophenylsulfonyl)-4-(5-methyl-1H-pyrazol-3-ylamino)-7H-pyrrolo[2,3-d]pyrimidin-7-yl)ethanol] |
| 100 to 500 | ≤ 1 | 10 to 100 | ≤ 10 | Cc1cc(Nc2nc(S(=O)(=O)c3ccc(F)cc3)nc3c2cnn3CCO)n[nH]1 [Example 23, 2-(6-(4-fluorophenylsulfonyl)-4-(5-methyl-1H-pyrazol-3-ylamino)-1H-pyrazolo[3,4-d]pyrimidin-1-yl)ethanol] |
| ≤ 100 | 1 to 10 | ≤ 10 | ≤ 10 | Cc1cc(Nc2nc(S(=O)(=O)c3ccc(F)cc3)nc3c2ccn3CCN2CCOCC2)n[nH]1 [Example 19, 2-(4-fluorophenylsulfonyl)-N-(5-methyl-1H-pyrazol-3-yl)-7-(2-morpholinoethyl)-7H-pyrrolo[2,3-d]pyrimidin-4-amine] |
| 100 to 500 | > 10 | > 100 | 10 to 100 | CCn1ncc2c(Nc3cc(C)[nH]n3)nc(Sc3ccc(F)cc3)nc21 [Example 43, 1-ethyl-6-((4-fluorophenyl)thio)-N-(5-methyl-1H-pyrazol-3-yl)-1H-pyrazolo[3,4-d]pyrimidin-4-amine] |
| > 500 | 1 to 10 | > 100 | 10 to 100 | Cc1cc(Nc2nc(S(=O)(=O)c3ccc(F)cc3)nc3c2cnn3-c2ccccc2)n[nH]1 [Example 31, 6-(4-fluorophenylsulfonyl)-N-(5-methyl-1H-pyrazol-3-yl)-1-phenyl-1H-pyrazolo[3,4-d]pyrimidin-4-amine] |
